Values after ≈ are worked out from the molar mass of the structure shown. Active and inactive are the calls of the source. No cut-off for these calls is given here.
Columns and labels:
[1] = Inhibition of wild type Gyrodactylus kobayashii Myosin ATPase activity incubated for 30 mins
Gyrodactylus kobayashii [2] = assay: Antiparasitic activity against Gyrodactylus kobayashii infected in gold fish measured upto 48 hrs by stereomicroscope analysis; type: functional, organism-based
[3] = Acute toxicity in gold fish infected with Gyrodactylus kobayashii measure upto 48 hrs by microscopic analysis; conditions: carassius auratus
Gyrodactylus kobayashii [4] = assay: Binding affinity to Gyrodactylus kobayashii Myosin expressed in Escherichia coli BL21 assessed as thermal stabilization at 1 mM at 40 to 50 degreeC by CETSA analysis
[5] = Inhibition of Gyrodactylus kobayashii Myosin N439A mutant ATPase activity incubated for 30 min
SARS-CoV-2 = assay: Antiviral activity against SARS-CoV-2 infected in African green monkey Vero cells assessed as inhibition of viral replication pretreated with compound for 2 hr followed by viral infection and measured after 48 hrs by indirect immunofluorescence assay; type: functional, organism-based; conditions: Severe acute respiratory syndrome coronavirus 2, Vero
[6] = Therapeutic index, ratio of LC50 for acute toxicity in gold fish infected with Gyrodactylus kobayashii to EC50 for antiparasitic activity against Gyrodactylus kobayashii infected in gold fish; conditions: goldfish
[7] = Gyrodactylus kobayashii, 48 h, read-out: EC50

Row | Compound | EC50 (Gyrodactylus kobayashii [2]; [7]) | LC50 at 48 h [3] | further results
1 | O=C(/C=C/c1ccccc1)c1ccccc1 [CHALCONE] | 1.08 µg/mL (≈ 5.21 µM) | 7.66 µg/mL (≈ 36.8 µM) | IC50 [1]: 440 µM
2 | O=c1cc(-c2ccccc2)oc2c([C@@H]3OC[C@H](O)[C@H](O)[C@H]3O)c(O)c([C@@H]3O[C@H](CO)[C@@H](O)[C@H](O)[C@H]3O)c(O)c12 | 7.58 µg/mL (≈ 13.8 µM) | – | –
3 | COc1cc(C[C@H]2C(=O)OC[C@@H]2Cc2ccc(OC)c(OC)c2)ccc1O [ARCTIGENIN] | 1.85 µg/mL (≈ 4.97 µM) | 11.6 µg/mL (≈ 31.2 µM) | Activity (Gyrodactylus kobayashii [4]): Active; IC50 [1]: 677 µM; IC50 [5]: 3210 µM
4 | C[C@@H]1O[C@@H](O[C@H]2C(=O)c3c(O)cc(O)cc3O[C@H]2c2ccc(O)c(O)c2)[C@H](O)[C@H](O)[C@H]1O | 15.9 µg/mL (≈ 35.3 µM) | 26.5 µg/mL (≈ 58.7 µM) | LC50 ([3]; 48 h): 24.975 µg/mL (≈ 55.5 µM)
5 | C[C@@H]1O[C@@H](Oc2cc(O)c3c(=O)c(O)c(-c4ccc(O)cc4)oc3c2O)[C@H](O)[C@H](O[C@@H]2O[C@H](CO)[C@@H](O)[C@H](O)[C@H]2O)[C@H]1O | 11.3 µg/mL (≈ 18.5 µM) | 13.2 µg/mL (≈ 21.7 µM) | –
6 | C#CCC(Cc1cnc2nc(N)nc(N)c2n1)c1ccc(C(=O)N[C@@H](CCC(=O)O)C(=O)O)cc1 (some centres not stated) [PRALATREXATE] | – | – | EC50 (SARS-CoV-2): 0.008 µM
7 | C[C@@H]1O[C@@H](Oc2cc(O)c3c(=O)c(O)c(-c4ccc(O)cc4)oc3c2)[C@H](O)[C@H](O)[C@H]1O [ALPHA-RHAMNOISOROBIN] | 8.27 µg/mL (≈ 19.1 µM) | 9.3 µg/mL (≈ 21.5 µM) | –
8 | O=C1C=CC(=O)c2ccccc21 [NAPHTHOQUINONE] | 0.047 µg/mL (≈ 0.297 µM) | 0.23 µg/mL (≈ 1.45 µM) | selectivity ratio [6]: 4.89
9 | O=C1OC[C@H]2O[C@@H](Oc3cc(O)c(C(=O)CCc4ccccc4)c(O)c3)[C@H](O)[C@@H](O)[C@@H]2OC(=O)c2cc(O)c(O)c(O)c2-c2c1cc(O)c(O)c2O [THONNINGIANIN B] | 6.31 µg/mL (≈ 8.73 µM) | 21.5 µg/mL (≈ 29.8 µM) | –
10 | O=C1C=C(O)C(=O)c2ccccc21 [LAWSONE] | 3.53 µg/mL (≈ 20.3 µM) | 10.7 µg/mL (≈ 61.4 µM) | selectivity ratio [6]: 3.03
11 | CO[C@H]1C[C@H](O[C@H]2CC[C@]3(C)[C@H]4CC[C@]5(C)[C@@H](C6=CC(=O)OC6)CC[C@]5(O)[C@@H]4CC[C@]3(O)C2)O[C@H](C)[C@H]1O[C@@H]1O[C@H](CO)[C@@H](O)[C@H](O)[C@H]1O | 3.89 µg/mL (≈ 5.59 µM) | 4.12 µg/mL (≈ 5.92 µM) | –
12 | CC(C)=CC[C@@H](O)C1=CC(=O)c2c(O)ccc(O)c2C1=O [SHIKONIN] | 0.371 µg/mL (≈ 1.29 µM) | 1.29 µg/mL (≈ 4.47 µM) | IC50 [1]: 140 µM; EC50 (Gyrodactylus kobayashii [2]): 0.37 µg/mL (≈ 1.28 µM); selectivity ratio [6]: 3.49
13 | Cc1c([C@H](C)[C@@H]2NC[C@@H](C)C[C@H]2O)ccc2c1C[C@H]1[C@H]2CC=C2C[C@@H](O[C@@H]3O[C@H](CO)[C@@H](O)[C@H](O)[C@H]3O)CC[C@@]21C | 4.58 µg/mL (≈ 8.02 µM) | 15.2 µg/mL (≈ 26.7 µM) | –
14 | CC1=CC(=O)c2ccccc2C1=O [MENADIONE] | 0.341 µg/mL (≈ 1.98 µM) | 1.19 µg/mL (≈ 6.93 µM) | selectivity ratio [6]: 3.5
15 | COc1ccc(CCC(=O)c2c(O)cc(O[C@@H]3O[C@H](CO)[C@@H](O)[C@H](O)[C@H]3O[C@@H]3O[C@@H](C)[C@H](O)[C@@H](O)[C@H]3O)cc2O)cc1O [NEOHESPERIDIN DIHYDROCHALCONE] | 13.4 µg/mL (≈ 21.9 µM) | 25.5 µg/mL (≈ 41.6 µM) | –
16 | O=C1C=CC(=O)c2c(O)cccc21 [JUGLONE] | 0.72 µg/mL (≈ 4.13 µM) | – | –
17 | O=C(O)[C@H]1O[C@@H](Oc2cc3oc(-c4ccc(O)cc4)cc(=O)c3c(O)c2O)[C@H](O)[C@@H](O)[C@@H]1O [SCUTELLARIN] | 7.15 µg/mL (≈ 15.5 µM) | 13.3 µg/mL (≈ 28.7 µM) | –
18 | NC(=O)[C@@H]1CCCN1C(=O)[C@H](Cc1cnc[nH]1)NC(=O)[C@@H]1CCC(=O)N1 [PROTIRELIN] | 9.52 µg/mL (≈ 26.3 µM) | 16.3 µg/mL (≈ 44.9 µM) | –
19 | CCCCC[C@H](O)/C=C/[C@H]1[C@H](O)CC(=O)[C@@H]1CCCCCCC(=O)O [ALPROSTADIL] | 16.2 µg/mL (≈ 45.8 µM) | 30.5 µg/mL (≈ 86 µM) | –
20 | COc1cc(C2Oc3ccc(C4Oc5cc(O)cc(O)c5C(=O)C4O)cc3OC2CO)ccc1O (configuration not stated) | 7.53 µg/mL (≈ 15.6 µM) | 26.2 µg/mL (≈ 54.4 µM) | –
21 | O=C1c2ccccc2C(=O)c2c1cc(O[C@@H]1O[C@H](CO[C@@H]3OC[C@@H](O)[C@H](O)[C@H]3O)[C@@H](O)[C@H](O)[C@H]1O)c(CO)c2O [LUCIDIN PRIMEVOROSIDE] | 4.15 µg/mL (≈ 7.35 µM) | 8.24 µg/mL (≈ 14.6 µM) | –
22 | COC(=O)[C@H]1O[C@@H](Oc2cc3oc(-c4ccc(O)cc4)cc(=O)c3c(O)c2O)[C@H](O)[C@@H](O)[C@@H]1O | 7.23 µg/mL (≈ 15.2 µM) | 11.4 µg/mL (≈ 23.9 µM) | –

Reference: ChEMBL document CHEMBL5512643, “Structure-based discovery of potent myosin inhibitors to guide antiparasite drug development” (Eur J Med Chem, 2024)
